As usually defined, the Ki is the equilibrium dissociation constant of an inhibitor or competing ligand from its target.

This is an account of results in patent US5712300A, “Hydroxamic acid derivatives useful for the treatment of diseases related to connective tissue degradation” (priority 1997, dated 1998).

Common to all, as to type: biochemical
The target in one experiment is Gelatinase. As to the kind of experiment: MMP inhibition by particle concentration fluorescence technique (gelatinase). As to conditions: pH 7.5; 15 min enzyme preincubation; substrate 1-3 h at room temperature; read-out: MMP Inhibition Constants, Gelatinase Ki. The protocol:
(§1) Inhibitory activity is evaluated in one or more of the MMP enzymes (stromelysin, gelatinase, and collagenase) in vitro using a particle concentration fluorescence techniques. An inhibitor binds to MMP enzymes prevents the degradation of a substrate of stromelysin, gelatinase, or collagenase. The substrate is attached with a fluorescein and a biotin. The intact substrate then binds to an avidin-coated particle via the biotin moiety. Once the particle is washed and dried, a fluorescent signal is generated since the fluorescent group is attached to the particle. Without an inhibitor present, the substrate is degraded by MMP enzymes and the fluorescein group is removed, therefore, no fluorescent signal can be detected. Testing compounds are dissolved in DMSO to the desired concentration, then the solutions are diluted to 1:5 with MMP buffer (50 mM Tris-HCl, pH 7.5; 150 mM NaCl; 0.02% NAN3). Serial two-fold dilutions of each compound are prepared. A concentrated, activated enzyme solution is transferred into each plate of the testing compounds, and the mixture is incubated at room temperature for 15 minutes. Thawed MMP substrate is then added into all plates, and the plates are incubate in the dark for 1-3 hours at room temperature. At this point, the substrate mixture is reacted with 0.1% avidin-coated polystyrene particles.

The target of the next experiment is Stromelysin (Homo sapiens, UniProt P08254). As to the kind of experiment: MMP inhibition by particle concentration fluorescence technique (stromelysin). As to conditions: pH 7.5; 15 min enzyme preincubation; substrate 1-3 h at room temperature; read-out: MMP Inhibition Constants, Stromelysin Ki. The text has this:
An inhibitor binds to MMP enzymes prevents the degradation of a substrate of stromelysin, gelatinase, or collagenase. The substrate is attached with a fluorescein and a biotin. The intact substrate then binds to an avidin-coated particle via the biotin moiety. Once the particle is washed and dried, a fluorescent signal is generated since the fluorescent group is attached to the particle. Without an inhibitor present, the substrate is degraded by MMP enzymes and the fluorescein group is removed, therefore, no fluorescent signal can be detected. […] Serial two-fold dilutions of each compound are prepared. A concentrated, activated enzyme solution is transferred into each plate of the testing compounds, and the mixture is incubated at room temperature for 15 minutes.

The next experiment addresses T1, Collagenase (Homo sapiens, UniProt P03956).
T1 sequence (P03956 100-469): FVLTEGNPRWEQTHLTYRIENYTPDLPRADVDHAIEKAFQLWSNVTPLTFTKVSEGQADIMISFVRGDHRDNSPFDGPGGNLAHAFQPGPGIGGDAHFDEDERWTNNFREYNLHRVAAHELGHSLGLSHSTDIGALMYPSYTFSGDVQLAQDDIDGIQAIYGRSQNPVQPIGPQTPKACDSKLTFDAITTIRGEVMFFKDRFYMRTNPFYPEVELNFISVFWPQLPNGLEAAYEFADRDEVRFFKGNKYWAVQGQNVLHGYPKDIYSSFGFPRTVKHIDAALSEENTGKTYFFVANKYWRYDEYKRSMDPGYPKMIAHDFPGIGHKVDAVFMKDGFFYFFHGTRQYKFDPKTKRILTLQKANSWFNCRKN
Kind of experiment: MMP inhibition by particle concentration fluorescence technique (collagenase). As to conditions: pH 7.5; 15 min enzyme preincubation; substrate 1-3 h at room temperature; read-out: MMP Inhibition Constants, Collagenase Ki. The protocol:
as §1

Sequence of Stromelysin (P08254 100-477): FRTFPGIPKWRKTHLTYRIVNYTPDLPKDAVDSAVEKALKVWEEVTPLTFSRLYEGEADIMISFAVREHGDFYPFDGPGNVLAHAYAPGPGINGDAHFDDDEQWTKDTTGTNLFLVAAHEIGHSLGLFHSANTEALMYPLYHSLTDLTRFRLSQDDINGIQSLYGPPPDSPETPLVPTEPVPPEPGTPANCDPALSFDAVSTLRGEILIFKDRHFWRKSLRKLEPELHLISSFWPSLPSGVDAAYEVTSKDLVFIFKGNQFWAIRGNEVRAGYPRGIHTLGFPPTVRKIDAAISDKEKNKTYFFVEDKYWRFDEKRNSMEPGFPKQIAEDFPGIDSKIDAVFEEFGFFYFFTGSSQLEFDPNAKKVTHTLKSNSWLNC

Regarding `CC(C)C[C@@]1([C@@H](CCN2C(=O)c3ccccc3C2=O)C(=O)NO)CCN(CCc2ccc(F)cc2)C1=O` (relative stereo) [Example 68, 1-[2-(4-Fluorophenyl)ethyl]-α-[2-(1,3-dihydro-1,3-dioxo-2H-isoindol-2-yl)ethyl]-N-hydroxy-3-(2-methylpropyl)-2-oxo-3-pyrrolidineacetamide], the inhibition constant Ki on Gelatinase came out at 160 nM; on Stromelysin it was 350 nM; on Collagenase it was 1460 nM.

Consider `CC(C)C[C@@]1([C@@H](CCN2C(=O)c3ccccc3S2(=O)=O)C(=O)NO)CCN(CCc2ccccc2)C1=O` (relative stereo) [Example 69, α-[2-(o-benzoic sulfimide)ethyl]-N-hydroxy-3-(2-methylpropyl)-2-oxo-1-(2-phenylethyl)3-pyrrolidineacetamide], for which the Ki at Gelatinase turned out to be 498 nM; at Stromelysin, 214 nM; at Collagenase it was 1200 nM.

Turning to `CC(C)C[C@@]1([C@H](CCN2C(=O)c3ccccc3C2=O)C(=O)NO)CCN(CCc2ccc(F)cc2)C1=O` (relative stereo) [Example 72, 1,3-Dihydro-N-hydroxy-α-[3-(2-methylpropyl)-2-oxo-1-[2-(4-fluorophenyl)ethyl]-3-pyrrolidinyl]-1,3-dioxo-2H-isoindole-2-butanamide], the results for the Ki on Gelatinase, on Stromelysin and at Collagenase were 83 nM, 640 nM and 39 nM, respectively.

On to `CC(C)C[C@@]1([C@@H](CCNC(=O)c2ccc(F)cc2)C(=O)NO)CCN(CCc2ccccc2)C1=O` (relative stereo) [Example 75, α-[2-[(4-Fluorobenzoyl)amino]ethyl]-N-hydroxy-3-(2-methylpropyl)-2-oxo-1-(2-phenylethyl)-3-pyrrolidineacetamide], for which the inhibition constant (Ki) was 264 nM on Gelatinase, 295 nM on Stromelysin and 74 nM at Collagenase.

Turning to `CC(C)C[C@@]1([C@@H](CCNC(=O)c2cccc([N+](=O)[O-])c2)C(=O)NO)CCN(CCc2ccccc2)C1=O` (relative stereo) [Example 76, N-Hydroxy-3-(2-methylpropyl)-α-[2-[(3-nitrobenzoyl)amino]ethyl]-2-oxo-1-(2-phenylethyl)-3-pyrrolidineacetamide], the inhibitory constant (Ki) amounted to 3300 nM on Gelatinase, 10800 nM at Stromelysin and 298 nM on Collagenase.

Take `CC(C)C[C@@]1([C@@H](CCNC(=O)c2cccc(F)c2)C(=O)NO)CCN(CCc2ccc(F)cc2)C1=O` (relative stereo) [Example 78, α-[2-[(3-Fluorobenzoyl)amino]ethyl]-1-[2-(4-fluorophenyl)ethyl]-N-hydroxy-3-(2-methylpropyl)-2-oxo-3-pyrrolidineacetamide]: the figures for the Ki on Gelatinase, on Stromelysin and at Collagenase were 278 nM, 696 nM and 18 nM, respectively.

With `CC(C)C[C@@]1([C@@H](CCNC(=O)c2ccc(-c3ccccc3)cc2)C(=O)NO)CCN(CCc2ccccc2)C1=O` (relative stereo) [Example 79, α-[2-[(4-Biphenylcarbonyl)amino]ethyl]-N-hydroxy-3-(2-methylpropyl)-2-oxo-1-(2-phenylethyl)-3-pyrrolidineacetamide], the Ki on Gelatinase worked out at 1.77 nM; at Stromelysin, 38 nM; on Collagenase it was 339 nM.

Regarding `COc1ccc(S(=O)(=O)NCC[C@@H](C(=O)NO)[C@]2(CC(C)C)CCN(CCc3ccccc3)C2=O)cc1` (relative stereo) [Example 82, N-Hydroxy-α-[2-[[(4-methoxyphenyl)sulfonyl]amino]ethyl]-3-(2-methylpropyl)-2-oxo-1-(2-phenylethyl)-3-pyrrolidineacetamide], the Ki amounted to 878 nM at Gelatinase, 379 nM on Stromelysin and 2400 nM on Collagenase.

Regarding `CC(C)C[C@@]1([C@@H](CCNS(=O)(=O)c2ccccc2)C(=O)NO)CCN(CCc2ccccc2)C1=O` (relative stereo) [Example 83, N-Hydroxy-3-(2-methylpropyl)-2-oxo-1-(2-phenylethyl)-α-[2-[(phenylsulfonyl)amino]ethyl]-3-pyrrolidineacetamide], the Ki at Gelatinase was 580 nM; at Stromelysin, 107 nM; on Collagenase, 17000 nM.

For the molecule `CC(C)C[C@@]1([C@@H](CCN2Cc3ccccc3C2=O)C(=O)NO)CCN(CCc2ccccc2)C1=O` (relative stereo) [Example 86, 1,3-Dihydro-N-hydroxy-α-[8-(2-methylpropyl)-2-oxo-1-(2-phenylethyl)-3-pyrrolidinyl]-1-oxo-2H-isoindole-2-butanamide], the figures for the inhibition constant (Ki) on Gelatinase, on Stromelysin and at Collagenase were 46 nM, 102 nM and 647 nM, respectively.

`COc1ccc(S(=O)(=O)NC[C@H](C(=O)NO)[C@]2(CC(C)C)CCN(CCc3ccccc3)C2=O)cc1` (relative stereo) [Example 90, N-Hydroxy-α-[[[(4-methoxyphenyl)sulfonyl]amino]methyl]-3-(2-methylpropyl)-2-oxo-1-(2-phenylethyl)-3-pyrrolidineacetamide]: the Ki at Gelatinase was 624 nM; on Stromelysin, 1770 nM; on Collagenase it was 52 nM.

On to `CC(C)C[C@@]1([C@@H](NS(=O)(=O)c2ccc(F)cc2)C(=O)NO)CCN(CCc2ccccc2)C1=O` (relative stereo) [Example 92, α-[[(4-Fluorophenyl)sulfonyl]amino]-N-hydroxy-3-(2-methylpropyl)-2-oxo-1-(2-phenylethyl)-3-pyrrolidineacetamide], for which the Ki at Gelatinase is 273 nM; on Stromelysin, 309 nM; at Collagenase, 370 nM.

Consider `CC(C)C[C@@]1([C@H](NS(=O)(=O)c2ccc(F)cc2)C(=O)NO)CCN(CCc2ccccc2)C1=O` (relative stereo) [Example 93, α-[[(4-Fluorophenyl)sulfonyl]amino]-N-hydroxy-3-(2-methylpropyl)-2-oxo-1-(2-phenylethyl)-3-pyrrolidineacetamide], for which the inhibition constant (Ki) on Gelatinase stood at 1100 nM; on Stromelysin it was 2080 nM; on Collagenase, 98 nM.

On to `O=C(NCC[C@@H](C(=O)NO)[C@]1(CCCO)CCN(CCc2ccccc2)C1=O)c1ccc(F)c(F)c1` (relative stereo) [Example 94, α-[2-[(3,4-Difluorobenzoyl)amino]ethyl]-N-hydroxy-3-(3-hydroxypropyl)-2-oxo-1-(2-phenylethyl)-3-pyrrolidineacetamide], for which the values for the inhibition constant Ki on Gelatinase, at Stromelysin and at Collagenase were 1.2 nM, 16 nM and 13.4 nM, respectively.

Regarding `O=C(NCC[C@@H](C(=O)NO)[C@]1(CCO)CCN(CCc2ccccc2)C1=O)c1ccc(F)c(F)c1` (relative stereo) [Example 95, α-[2-[(3,4-Difluorobenzoyl)amino]ethyl]-N-hydroxy-3-(2-hydroxyethyl)-2-oxo-1-(2-phenylethyl)-3-pyrrolidineacetamide], the Ki on Gelatinase amounted to 13 nM; on Stromelysin it was 119 nM; on Collagenase, 25 nM.

Turning to `CC(C)CC1(CC(=O)NO)CCN(CCc2ccccc2)C1=O` (stereo not drawn) [Example 1, N-Hydroxy-3-(2-methylpropyl)-2-oxo-1-(2-phenylethyl)-3-pyrrolidineacetamide], the figures for the inhibition constant (Ki) on Gelatinase, at Stromelysin and on Collagenase were 3550 nM, 27200 nM and 2300 nM, respectively.

For `CC(C)C[C@@]1(CC(=O)NO)CCN(CCc2ccccc2)C1=O` [Example 2, (3S)-N-Hydroxy-3-(2-methylpropyl)-2-oxo-1-(2-phenylethyl)-3-pyrrolidineacetamide], the Ki on Gelatinase amounted to 3290 nM; at Stromelysin it was 20200 nM; at Collagenase it was 1040 nM.

As to `CC(C)CC1(C(C)C(=O)NO)CCN(CCc2ccccc2)C1=O` (stereo not drawn) [Example 3, N-Hydroxy-α-methyl-3-(2-methylpropyl)-2-oxo-1-(2-phenylethyl)-3-pyrrolidineacetamide], the Ki at Gelatinase is 11700 nM; on Stromelysin, 10900 nM; on Collagenase it was 4230 nM.

On to `CNC(=O)CN1CCC(CC(=O)NO)(CC(C)C)C1=O` (stereo not drawn) [Example 20, N^3 -Hydroxy-N^1-methyl-3-(2-methylpropyl)-2-oxo-1,3-pyrrolidinediacetamide], for which the Ki on Gelatinase amounted to 3100 nM; at Stromelysin, 16600 nM; at Collagenase it was 579 nM.
